Measured values: PubChem BioAssay AID2060904 (Molecular Pharmacology Branch, DTP, NCI, 2025)

Tested on: 349418-098-R-PDC complex spheroid viability
Test: Anticancer human tumor 349418-098-R-PDC patient-derived lung adenocarcinoma cell line growth inhibition [RAS]
Conditions: for IC50: curve of first compound; for viability, T/C: stronger effect = lower value; active means viability on the fitted dose curve at most 10% of control; inactive means the rest
From the text: RAS pathway inhibitors in Combinations in Complex Spheroids
A high-throughput screen of multi-cell type tumor spheroids was designed to identify active combinations of RAS pathway inhibitors and targeted small molecules. Complex spheroids include a stromal component modeled by human endothelial cells (HUVEC) and fibroblasts modeled by human mesenchymal stem cells (MSCs). The concentration ranges selected for each drug and investigational agent were based upon clinically achievable concentrations if the clinical Cmax of the agent was known.
Compounds. The drugs and investigational agents: abemaciclib (NSC768073), cobimetinib (NSC768068), divarasib (GDC6063, NSC841802), docetaxel (NSC628503), GDC-1971 (RLY-1971, NSC841576), gemcitabine (NSC613327), inavolisib (NSC800729), ipatasertib (NSC767898), KB-0742 (NSC834161), MRTX-1133 (NSC836407), osimertinib (NSC779217), RMC-4630 (NSC839698), RMC-6236 (NSC851965), RMC-6291 (NSC852671), Ro-3306 (NSC812927), sapanisertib (NSC764658), SN-38 (NSC673596), staurosporine (NSC755774), SY5609 (NSC837396), and tovorafenib (DAY101, NSC766906), were obtained from the National Cancer Institute (NCI) Developmental Therapeutics Program Chemical Repository. The FDA-approved anticancer drug set is available from the NCI Developmental Therapeutics Program. […] The stock solutions were prepared in dimethyl sulfoxide (DMSO, Sigma-Aldrich, St. Louis, MO, cat. D2650) at 800-fold the tested concentration and stored at -70 degrees C prior to their use. All drugs and investigational agents were tested over a range starting from a high concentration at or near the clinical Cmax and decreasing in half-log increments. If the clinical Cmax for an agent had not been determined, the highest concentration tested was 10 microM.
Cell Culture. All cells were maintained in an incubator at 37 degrees C and 5% CO2 with 95% humidity. The PDC lines were cultured according to standard operating procedures established by the NCI PDMR. All PDCs were thawed and cultured in Matrigel-coated flasks prepared with a working solution of 1X Ham's F-12 nutrient mix, without supplementation (Invitrogen, Waltham, MA, cat. 11765054), 100 U/mL penicillin-streptomycin (Invitrogen, cat. 15140122), and 2.5% Matrigel (Corning Inc., Corning, NY, cat. 354248) for the first three passages. The 362531-283-R-J2-PDC and 782815-120-R-J1-PDC lines were cultured in 6C/Colon 1B media, which includes advanced DMEM/F-12 (Thermo Fisher Scientific, cat. 12634028), 10 mM HEPES (Thermo Fisher Scientific, cat. 15630080), 1X GlutaMAX supplement (Thermo Fisher Scientific, cat. 35050061), 0.1 mg/mL primocin (InvivoGen, San Diego, CA, cat. ant-pm-2), 10% defined fetal bovine serum, heat inactivated (HyClone Laboratories Inc., Logan, UT, cat. SH30070.03HI), 50% L-WRN conditioned media (ATCC, cat. CRL-3276), 1.25 mM N-Acetyl-L-cysteine (Sigma-Aldrich, cat. A9165), 10 mM nicotinamide (Sigma-Aldrich, cat. N0636), 1X B-27 supplement (Thermo Fisher Scientific, cat. 17504044), 1X N-2 supplement (Thermo Fisher Scientific, cat. 17502048), 50 ng/mL human EGF (Thermo Fisher Scientific, cat. PHG0311), and 10 microM Y-27632 dihydrochloride (Tocris Bioscience, cat. 1254). The K12877-001-R-J1-PDC line was cultured in 6I media, which includes all 6C/Colon 1B media plus 10 ng/mL human FGF-10 (PeproTech, cat. 100-26), 1 ng/mL human FGF-2 (PeproTech, cat. 100-18B), 1 µM prostaglandin E2 (Tocris Bioscience, cat. 2296), […] hydrocortisone (Sigma-Aldrich, cat. H4001), and […] bovine insulin (Sigma-Aldrich, cat. I6634). The K86415-001-R-J1-PDC line was cultured in 6D media, which includes all 6C/Colon 1B media components minus the L-WRN conditioned media. The 485176-168-R4-J1-PDC was cultured in PANC media, which includes all 6C/Colon 1B media plus 100 ng/mL human FGF-10 (PeproTech, cat. 100-26), 500 nM SB-431542 (Selleckchem, cat. S1067), and 10 nM gastrin (Tocris Bioscience, cat. 3006). […]
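Further: spheroids exposed to compound for seven days before viability readout.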

CC1(C)CCC(Nc2ncc(C(F)(F)F)c(-c3c[nH]c4c(P(C)(C)=O)c(C#N)ccc34)n2)CN1 (configuration not stated) + CCn1c(-c2cc(N3CCN(C)CC3)cnc2C(C)OC)c2c3cc(ccc31)-c1csc(n1)CC(NC(=O)C1CC1C)C(=O)N1CCCC(N1)C(=O)OCC(C)(C)C2
1.05 nM: IC50 (second compound 0.03 µM)
1.07 nM: IC50 (second compound 0.000949 µM)
< 0.949 nM: IC50 (second compound 0.00949 µM) | IC50 (second compound 0.0949 µM)
1.09 nM: IC50 (second compound 0.3 µM)
inactive: viability, T/C (second compound 0.000949 µM, first compound 0.000949 µM) 53.6% | viability, T/C (second compound 0.000949 µM, first compound 0.003 µM) 23.1% | viability, T/C (second compound 0.000949 µM, first compound 0.00949 µM) 13.3% | viability, T/C (second compound 0.003 µM, first compound 0.000949 µM) 52.2% | viability, T/C (second compound 0.003 µM, first compound 0.003 µM) 22.1% | viability, T/C (second compound 0.003 µM, first compound 0.00949 µM) 14.4% | viability, T/C (second compound 0.00949 µM, first compound 0.000949 µM) 50.2% | viability, T/C (second compound 0.00949 µM, first compound 0.003 µM) 26.2% | viability, T/C (second compound 0.00949 µM, first compound 0.00949 µM) 12.5% | viability, T/C (second compound 0.03 µM, first compound 0.000949 µM) 53.3% | viability, T/C (second compound 0.03 µM, first compound 0.003 µM) 20.5% | viability, T/C (second compound 0.03 µM, first compound 0.00949 µM) 12.5% | viability, T/C (second compound 0.0949 µM, first compound 0.000949 µM) 49.1% | viability, T/C (second compound 0.0949 µM, first compound 0.003 µM) 23.5% | viability, T/C (second compound 0.0949 µM, first compound 0.00949 µM) 11.1% | viability, T/C (second compound 0.3 µM, first compound 0.000949 µM) 53.6% | viability, T/C (second compound 0.3 µM, first compound 0.003 µM) 23.7% | viability, T/C (second compound 0.3 µM, first compound 0.00949 µM) 11.2%
1.02 nM: IC50 (second compound 0.003 µM)
active: viability, T/C (second compound 0.000949 µM, first compound 0.03 µM) 9.61% | viability, T/C (second compound 0.000949 µM, first compound 0.0949 µM) 8.11% | viability, T/C (second compound 0.000949 µM, first compound 0.3 µM) 6.35% | viability, T/C (second compound 0.003 µM, first compound 0.03 µM) 8.76% | viability, T/C (second compound 0.003 µM, first compound 0.0949 µM) 7.99% | viability, T/C (second compound 0.003 µM, first compound 0.3 µM) 7.95% | viability, T/C (second compound 0.00949 µM, first compound 0.03 µM) 9.59% | viability, T/C (second compound 0.00949 µM, first compound 0.0949 µM) 9.15% | viability, T/C (second compound 0.00949 µM, first compound 0.3 µM) 8% | viability, T/C (second compound 0.03 µM, first compound 0.03 µM) 9.78% | viability, T/C (second compound 0.03 µM, first compound 0.0949 µM) 8.18% | viability, T/C (second compound 0.03 µM, first compound 0.3 µM) 8.17% | viability, T/C (second compound 0.0949 µM, first compound 0.03 µM) 10.2% | viability, T/C (second compound 0.0949 µM, first compound 0.0949 µM) 10.9% | viability, T/C (second compound 0.0949 µM, first compound 0.3 µM) 7.97% | viability, T/C (second compound 0.3 µM, first compound 0.03 µM) 11% | viability, T/C (second compound 0.3 µM, first compound 0.0949 µM) 9.58% | viability, T/C (second compound 0.3 µM, first compound 0.3 µM) 7.73%
